Structures can show the parent of a compound that is named as a salt. Where two headings read alike, the source gives them in different places.
What was measured:
HCT-116 cell line = assay: Inhibition of cell growth, tetrazolium salt (MTT) assay; type: cell-based; conditions: for IC50: Homo sapiens, HCT-116, 120 h, MTT, three to five days, read-out: HCT-116 IC50; for HCT-116 % Inhibition at 0.25 μM: 0.25 μM compound; for HCT-116 % Inhibition at 0.1 μM: 0.1 μM compound
Method in brief: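 MTT colorimetric viability: three-to-five-day compound exposure in 0.5% (v/v) DMSO at 37° C, MTT 0.2 mg/mL for the last 4 h, A540 compared with vehicle-treated cells.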

[1] = molecular target: human CDK4 and genetically truncated (1-264) cyclin D3 (Homo sapiens, UniProt P11802); assay: Inhibition of CDK4/Cyclin D Retinoblastoma Kinase Activity; type: biochemical; conditions: for Ki: apparent Ki, CDK4/truncated cyclin D3, Rb fragment substrate, 25 μM ATP; for CDK4 % Inhibition at 0.03 μM: 0.03 μM compound
Chain of human CDK4 and genetically truncated (1-264) cyclin D3 (P11802 whole entry, the tested form may be a part): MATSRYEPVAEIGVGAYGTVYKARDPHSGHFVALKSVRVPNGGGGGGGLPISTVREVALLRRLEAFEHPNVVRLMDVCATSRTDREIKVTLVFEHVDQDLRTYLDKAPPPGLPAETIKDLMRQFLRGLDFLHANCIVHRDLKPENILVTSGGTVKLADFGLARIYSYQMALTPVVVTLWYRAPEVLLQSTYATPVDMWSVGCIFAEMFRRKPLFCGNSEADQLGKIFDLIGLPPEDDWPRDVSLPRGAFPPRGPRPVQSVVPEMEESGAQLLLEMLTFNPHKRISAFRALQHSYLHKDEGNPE
Chain of human CDK4 and genetically truncated (1-264) cyclin D3 (P30281 1-264 partner): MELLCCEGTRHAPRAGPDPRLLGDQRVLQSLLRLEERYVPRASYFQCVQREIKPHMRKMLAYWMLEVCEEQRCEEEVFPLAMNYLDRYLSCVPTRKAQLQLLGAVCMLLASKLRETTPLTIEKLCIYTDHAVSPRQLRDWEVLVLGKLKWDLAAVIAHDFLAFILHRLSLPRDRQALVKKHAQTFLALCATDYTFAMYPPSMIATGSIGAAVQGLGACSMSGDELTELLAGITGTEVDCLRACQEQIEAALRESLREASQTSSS
Method in brief: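 Read-out: 32P/33P incorporation into Rb fragment (386-928) captured on nitrocellulose, phosphorimager. Enzyme 5 nM CDK4/cyclin D3(1-264) from insect cells; ATP 25 μM, pH 7.4, 30 °C, 20 min (60 min for tight binders). Ki from competitive fits.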

CDK2/Cyclin A = CDK2/Cyclin A (Homo sapiens, UniProt P24941); assay: Inhibition of CDK2/Cyclin A Retinoblastoma Kinase Activity; type: biochemical; conditions: for Ki: apparent Ki, CDK2/proteolyzed cyclin A, Rb fragment substrate, 25 μM ATP
Method in brief: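 Human CDK2, baculovirus/insect-cell expressed, complexed with proteolyzed cyclin A (10 nM or 19 nM CDK2) phosphorylates an Rb fragment with 25 μM [32P/33P]ATP at pH 7.4, 30° C, for 60 or 75 minutes under initial-rate conditions. Filter-captured radioactivity is read by phosphorimager; apparent Ki from competitive-inhibition fits.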

SMILES | IC50 (HCT-116 cell line; first HCT-116 column (c4)) [nM] | IC50 (HCT-116 cell line; second HCT-116 column (c5)) [nM] | Ki [1] [nM] | Ki (CDK2/Cyclin A) [nM] | further results
Nc1nc(NC2CCN(S(=O)(=O)CCCN3CC=CC3)CC2)sc1C(=O)c1c(F)cccc1F [Example K9, 1-(4-Amino-2-{1-[3-(2,5-dihydropyrrol-1-yl)propane-1-sulfonyl]-piperidin-4-ylamino}-thiazol-5-yl)-1-(2,6-difluoro-phenyl)-methanone.] | 90 | 930 | 1.6 | < 1.3 | 
CN1CCN(CCCS(=O)(=O)N2CCC(Nc3nc(N)c(C(=O)c4c(F)cccc4F)s3)CC2)CC1 [Example K16, 1-(4-Amino-2-{1-[3-(4-methylpiperazin-1-yl)propane-1-sulfonyl]-piperidin-4-ylamino}-thiazol-5-yl)-1-(2,6-difluoro-phenyl)-methanone.] | 1800 | 5000 | 2.8 | 7.8 | 
CCOC(=O)C(Cc1ccccc1)NC(=O)N1CCC(Nc2nc(N)c(C(=O)c3c(F)cccc3F)s2)CC1 (stereo not drawn) [Example O75] |  |  |  |  | HCT-116 % Inhibition at 0.25 μM (HCT-116 cell line; Table 2): 41%; CDK4 % Inhibition at 0.03 μM ([1]; Table 2): 10%; CDK2 % Inhibition At 0.03 μM (CDK2/Cyclin A; 0.03 μM compound, Table 2): 25%
Nc1nc(NC2CCN(C(=O)Oc3ccc([N+](=O)[O-])cc3)CC2)sc1C(=O)c1c(F)cccc1F [Example Q84] |  |  |  |  | HCT-116 % Inhibition at 0.1 μM (HCT-116 cell line; Table 4): 3%; HCT-116 % Inhibition at 0.25 μM (HCT-116 cell line; Table 4): 40%; CDK4 % Inhibition at 0.03 μM ([1]; Table 4): 88%; CDK2 % Inhibition at 0.03 μM (CDK2/Cyclin A; 0.03 μM compound, Table 4): 63%
Nc1nc(NC2CCN(S(=O)(=O)c3ccc(-c4nnn[nH]4)cc3)CC2)sc1C(=O)c1c(F)cccc1F [Example J4, 1-(4-Amino-2-{1-[4-(1H-tetrazol-5-yl)-benzenesulfonyl]-piperidin-4ylamino}-thiazol-5-yl)-1-(2,6-difluoro-phenyl)-methanone Trifluoroacetic Acid Salt] | > 5000 | > 5000 | 1.7 | < 1 | 
CCCCCCOc1ccc(C(=O)N2CCC(Nc3nc(N)c(C(=O)c4c(F)cccc4F)s3)CC2)cc1 [Example Q30] |  |  |  |  | HCT-116 % Inhibition at 0.1 μM (HCT-116 cell line; Table 4): 8%; HCT-116 % Inhibition at 0.25 μM (HCT-116 cell line; Table 4, 0.25 µM): 47%; CDK4 % Inhibition at 0.03 μM ([1]; Table 4, 0.03 µM): 42%; CDK2 % Inhibition at 0.03 μM (CDK2/Cyclin A; 0.03 μM compound, Table 4, 0.03 µM): −4%
CCCCCc1ccc(C(=O)N2CCC(Nc3nc(N)c(C(=O)c4c(F)cccc4F)s3)CC2)cc1 [Example Q37] |  |  |  |  | HCT-116 % Inhibition at 0.1 μM (HCT-116 cell line; Table 4): 0%; HCT-116 % Inhibition at 0.25 μM (HCT-116 cell line; Table 4): 31%; CDK4 % Inhibition at 0.03 μM ([1]; Table 4): 45%; CDK2 % Inhibition at 0.03 μM (CDK2/Cyclin A; 0.03 μM compound, Table 4): 12%
COc1cc(C(=O)N2CCC(Nc3nc(N)c(C(=O)c4c(F)cccc4F)s3)CC2)cc(OC)c1C [Example D17, {4-Amino-2-[1-(3,5-dimethoxy-4-methyl-benzoyl)-piperidin-4-ylamino]-thiazol-5-yl-}(2,6-difluoro-phenyl)-methanone] | 57 | 160 | 18 | 69 | 
Nc1nc(NC2CCN(S(=O)(=O)c3ccc(OCCN4CCCC4)nc3)CC2)sc1C(=O)c1c(F)cccc1F [Example H5, 1-(4-Amino-2-{1-[6-(2-pyrrolidin-1-yl-ethoxy)-pyridine-3-sulfonyl]-piperidin-4-ylamino}-thiazol-5-yl)-1-(2,6-difluoro-phenyl)-methanone Trifluoroacetic Acid Salt] | 71 | > 500 | 0.39 | 1.1 | 
CC(C)NCCOc1ccc(S(=O)(=O)N2CCC(Nc3nc(N)c(C(=O)c4c(F)cccc4F)s3)CC2)cn1 [Example H19, (4-Amino-2-{1-[6-(2-isopropylamino-ethoxy)-pyddine-3-sulfonyl]-piperidin-4-ylamino}-thiazol-5-yl)-(2,6-difluoro-phenyl)-methanone Hydrochloride Salt] | 180 | 2500 | 0.52 | 1.5 | 
Nc1nc(NC2CCN(S(=O)(=O)c3ccc(CBr)cc3)CC2)sc1C(=O)c1c(F)cccc1F [Example P68] |  |  |  |  | HCT-116 % Inhibition at 0.1 μM (HCT-116 cell line; Table 3): 8%; HCT-116 % Inhibition at 0.25 μM (HCT-116 cell line; Table 3): 25%; CDK4 % Inhibition at 0.03 μM ([1]; Table 3): 70%; CDK2 % Inhibition at 0.03 μM (CDK2/Cyclin A; 0.03 μM compound, Table 3): 72%
Nc1nc(NC2CCN(S(=O)(=O)CCn3cccc3)CC2)sc1C(=O)c1c(F)cccc1F [Example K34, {4-Amino-2-[1-(2-pyrrol-1-yl-ethanesulfonyl)-piperidin-4-ylamino]-thiazol-5-yl}-(2,6-difluoro-phenyl)-methanone Trifluoroacetic Acid Salt.] | 280 | 1200 | 5.4 | 6 | 
CN(C)c1cccc2c(S(=O)(=O)N3CCC(Nc4nc(N)c(C(=O)c5c(F)cccc5F)s4)CC3)cccc12 [Example P2] |  |  |  |  | HCT-116 % Inhibition at 0.1 μM (HCT-116 cell line; Table 3): 15%; HCT-116 % Inhibition at 0.25 μM (HCT-116 cell line; Table 3): 24%; CDK4 % Inhibition at 0.03 μM ([1]; Table 3): 69%; CDK2 % Inhibition at 0.03 μM (CDK2/Cyclin A; 0.03 μM compound, Table 3): 43%
